From patent US10138252B1, “Lactones” (Purdue Research Foundation, priority 2017, dated 2018)
≈ marks a conversion by molar mass, not a printed value.

Tests used:
[1] = test system: Clostridium difficile; assay: Broth microdilution MIC against C. difficile strains; details: Clostridioides difficile, BAA1870, 48 h, read-out: minimum inhibitory concentrations (MIC)
[2] = Antifungal broth microdilution MIC assay; details: read-out: minimum inhibitory concentrations

Row | Structure (SMILES) | MIC [1] [µM] | MIC [2] [µM]
1 | Cc1ccc(S(=O)(=O)N2CCC3=C2C(c2cccc(Br)c2)OC3=O)cc1 (stereo not drawn) [Example 8, 6-(3-bromophenyl)-1-tosyl-1,2,3,6-tetrahydro-4H-furo[3,4-b]pyrrol-4-one] | 64 to 128 (≈ 27.8 to 55.6 µg/mL) | 64 to 128 (≈ 27.8 to 55.6 µg/mL)
2 | Cc1ccc(S(=O)(=O)N2CCC3=C2C2(COC2)OC3=O)cc1 [Example 19, 1-tosyl-2,3-dihydrospiro[furo[3,4-b]pyrrole-6,3′-oxetan]-4(1H)-one] | 64 to 128 (≈ 20.6 to 41.1 µg/mL) | 64 to 128 (≈ 20.6 to 41.1 µg/mL)
3 | Cc1ccc(S(=O)(=O)N2CCC3=C2COC3=O)cc1 [Example 11, 1-tosyl-1,2,3,6-tetrahydro-4H-furo[3,4-b]pyrrol-4-one] |  | 64 to 128 (≈ 17.9 to 35.8 µg/mL)
4 | CCCC1OC(=O)/C1=C1\CCCN1S(=O)(=O)c1ccc(C)cc1 (stereo not drawn) [Example 22, (E)-4-propyl-3-(1-tosylpyrrolidin-2-ylidene)oxetan-2-one] |  | 64 to 128 (≈ 21.5 to 42.9 µg/mL)
